Read-outs that look alike come from different tables or passages of the source.
Experiments:
[1] = ulcerogenic activity test (GI); settings: in vivo, po
Text: (The ulcerogenic activity test is hereafter referred to as GI).

[2] = test system: adjuvant-induced polyarthritis syndrome; assay: adjuvant-induced polyarthritis syndrome in rats (inhibition of paw volume); format: in vivo, male Charles River-Wistar Lewis rats; settings: 504 h, rat, oral, from day before adjuvant, continued for 21 days
Experimental: The (6,11-dihydro-11-oxodibenz[b,e]oxepinyl)pentanoic acids and derivatives thereof of the present invention are useful as antiarthritic agents due to their ability to suppress arthritis-type inflammation in mammals. […] M. Perron and F. D. Wood, Arthritis and Rheumatism, 2, 440 (1959).
Groups of 10 male Charles River-Wistar Lewis rats weighing 150 to 175 g were individually housed and maintained on a regular rat chow diet. Water was given ad libitrim. The adjuvant was prepared by suspending 75 mg of Mycobacterium butyricum (Defco Laboratories, Detroit, Mich.) in 10 ml of white paraffin oil with continuous stirring for 2 hrs at room temperature prior to administration. Test compounds are prepared by suspending the drug in water, adding one drop of Tween 80 per 10 ml of suspension, and homogenizing. The adjuvant suspension (0.1 ml) was injected into the footpad of the left hind paw of the rat. Test compound suspensions were administered orally (10 ml/kg) the day before adjuvant suspension injection and the administration was continued for 21 days. One group of ten rats was used for the test drug, standard, adjuvant-injected control and non-injected control. Control animals received vehicle (10 ml/kg). Three doses of test drug and one dose of standard preparation were used. Injected and non-injected paw volumes were determined on the day the adjuvant suspension was given, and on subsequent days thereafter (usually days 5, 10, 18, and " the method of C. A. Winter, et al., Proc. Soc. Exp. Biol. Med., 111, 544 (1962).
The percent inhibition of paw volume (injected and non-injected hind paw) was calculated by the following formula: [formula]
ED50 -values, i.e., the dose at which the drug affects a 50% inhibition of paw volume, were estimated by the method of J. T. Litchfield and F. Wilcoxon, J. Pharm. Exp. Ther., 96, 99 (1948) and statistically evaluated by means of the student "t" test.

[3] = injected hind paw, read-out: ED50 (dose at which the drug affects a 50% inhibition of paw volume), injected paw
[4] = non-injected hind paw, read-out: ED50 (dose at which the drug affects a 50% inhibition of paw volume), non-injected paw

Row | Compound | TD50 ([1]; read-out: GI ID50 (ulcerogenic activity)) [mg/kg] | TD50 [1] [mg/kg] | ED50 [2, 3] [mg/kg] | ED50 [2, 4] [mg/kg]
1 | CC(C(=O)O)c1ccc2c(c1)C(=O)c1ccccc1CO2 (stereo not drawn) [2-(6,11-Dihydro-11-oxodibenz[b,e]-oxepin-2-yl)propionic acid] | 5.5 | – | – | –
2 | CC(CCC(=O)O)c1ccc2c(c1)C(=O)c1ccccc1CO2 (stereo not drawn) [4-(6,11-Dihydro-11-oxodibenz[b,e]oxepin-2-yl)pentanoic acid] | – | > 100 | 6.4 | 3.4
3 | CCCCC1C(=O)N(c2ccccc2)N(c2ccccc2)C1=O [Phenylbutazone] | – | – | 12 | 6.8

From patent US5008285A, “(6,11-dihydro-11-oxodibenz[b,e]oxepin-yl)pentanoic acids and derivatives thereof” (Hoechst-Roussel Pharmaceuticals, Inc., priority 1989, dated 1991)
